Results: patent US10144713B1, “Bis-cyclic guanidines as antibacterial agents” (UNIVERSITY OF SOUTH FLORIDA, priority 2017, dated 2018)

Assays:
S. aureus ATCC 33591 = test: Thigh burden infection model in neutropenic mice; type: in vivo, CD-1 female mice; details: 5 mg/kg i.v. at 1 and 7 h after infection, thighs harvested at 25 h
Description: Neutropenic mice (n=4 per group) were inoculated in the posterior thigh muscles with S. aureus ATCC 33591 at 1×10^6 CFU per thigh and then treated with compounds 11 and 12 (5 mg/kg per dose) by i.v. bolus injection in the tail vein at 1 and 7 h after infection.
A thigh burden model was employed to evaluate the in vivo anti-infective activity of compounds 11 and 12, in which the thigh muscle of neutropenic mice was inoculated with S. aureus, followed by intravenous (i.v.) administration of corresponding compounds. All protocols and methods associated with animal experiments were approved by University of South Florida (USF) Institutional Animal Care and Use Committee. The in vivo experiment on the mouse model of the thigh burden infection with MRSA was conducted adapted from previously reported protocol. The CD-1 female mice which were 6 to 8 weeks old and around 25 g in weights were used for the study. Neutropenic Mice were induced by injecting cyclophosphamide (150 mg/kg) intraperitoneally twice at 4 and 1 days before bacterial inoculation. One MRSA colony from tryptic soy agar (TSA) cultures was allowed to grow in tryptic soy broth (TSB) overnight at 37° C., then 100 μL culture was withdrawn and diluted with TSB to a total volume of 4 mL, which was subsequently incubated at 37° C. for another 6 h. […] The formed colonies were counted to calculate CFU per thigh.

E. coli [1] = test: Drug-resistance study, 14 passages, E. coli; type: cell-based; details: half-MIC exposure, 14 successive passages
Description: (§1) Bacterial resistance tests were conducted using compound 12. The compound was incubated with either MRSA or E. Coli in the well at the concentration of half-MIC (½ MIC, 10^6 CFU/ml) every day and tested for their activity through 14 successive passages.

MRSA = test: Drug-resistance study, 14 passages, MRSA; type: cell-based, S. aureus; details: half-MIC exposure, 14 successive passages
Description: as §1

E. coli [2] = test: Time-kill study; type: cell-based; details: 12.5 μg/mL
Description: The killing activity was monitored for the first 2 h. The concentrations for compound 11 were 2×MIC, 4×MIC, and 8×MIC, respectively.
Time-kill studies were conducted to investigate the bacterial killing kinetics of compounds 11 and 12 by using E. Coli. Briefly, the bacteria […] grew to mid-logarithmic phase in TSB medium, from which the suspension (10^6 CFU/ml) was made. The suspension was incubated with different concentrations of 11 or 12 for 10 min, 30 min, 1 h and 2 h respectively. The mixtures were diluted by 10^2 to 10^4 fold and spread on TSB agar plates. After incubation at 37° C. overnight, the colonies on the plates were counted and plotted against the incubation time. […] Cell colonies were counted in agar plates at 12.5, 25, and 50 μg/mL. Compound 11 at the concentration of 12.5 or 25 μg/mL completely removed all bacteria in 2 hours, and at 50 μg/mL it completely removed bacteria in 0.5 hour. Compound 12 killed E. Coli completely in 0.5 hour at the concentration of 12.5 μg/mL.

E. coli (ATCC 25922) = test: MIC against E. coli; type: cell-based; details: Escherichia coli, ATCC25922; Gram −; 16 h, 37° C.
Description: (§2) Minimum Inhibitory Concentrations (MICs) Against Bacteria.
(§3) The antimicrobial activity of the compounds was tested on the following six bacteria strains: K. pneumoniae (ATCC 13383), P. aeruginosa (ATCC27853), E. coli (ATCC 25922), vancomycin-resistant Enterococcus faecalis(ATCC 700802), Methicillin-resistant S. aureus (MRSA, ATCC 33591), Methicillin-resistant S. epidermidis (MRSE, RP62A). The procedures were followed as reported previously (Hancock et al., Immunobiology 2006, 211, 315-322). Briefly, a single colony of each bacterium was inoculated in 3 mL TSB medium and incubated overnight at 37° C. Then the bacteria culture was diluted at 1:100 and the bacteria were allowed to grow to mid-logarithmic phase. Next, 50 μL of 2-fold serial dilutions of compounds (0.1-25 μg/mL) were added the 96-well plate containing aliquots of 50 μL of bacteria suspension (1×10^6 CFU/mL) in each well. The mixture was incubated at 37° C. for 16 h, and their absorption at 600 nm wavelength was read on a Biotek Synergy HT microtiter plate reader. […] The experiments were repeated at least three times with duplicates each time. HC50 means the concentration causing 50% hemolysis.

[3] = tested on: P. aeruginosa (ATCC27853); test: MIC against P. aeruginosa; type: cell-based; details: Pseudomonas aeruginosa, ATCC27853; Gram −; 16 h, 37° C.
Description: as §2, §3

[4] = tested on: Methicillin-resistant S. epidermidis (MRSE, RP62A); test: MIC against MRSE; type: cell-based; details: Staphylococcus epidermidis, MRSE; Gram +; 16 h, 37° C.
Description: as §2, §3

E. coli biofilm = test: Biofilm formation inhibition (crystal violet), E. coli; type: cell-based; details: Escherichia coli
Description: Bacteria in biofilms are known to tolerate antibiotic treatment and are thus more difficult to eradicate than planktonic cells. Biofilms formed by MRSA and E. coli have frustrated the treatment of persistent bacterial infections. Compound 12 was evaluated for its ability to inhibit biofilm formation of MRSA and E. coli. Overnight grown bacteria were inoculated into fresh 10% of MHII broth at a ratio of 1:100. 100 μL of inoculated culture was incubated with appropriated amounts of compound 12 in wells of 96-well plate. The plate was incubated at 37° C. for overnight. Optical density of each well was recorded at the wavelength of 600 nm and then the biofilm biomass was recorded by the crystal violet method. Biofilm biomass was presented as CV OD/OD of growth. Relative biofilm biomass values were normalized by the biomass value of control (no addition of compound). Experiments were conducted in triplicate and the data were presented as mean±STDEV.

[5] = tested on: Methicillin-resistant S. aureus (MRSA, ATCC 33591); test: MIC against MRSA; type: cell-based; details: Staphylococcus aureus; Gram +; 16 h, 37° C.
Description: as §2, §3

CCCCCCN1C(=N)N(CC(=O)Nc2cccc(NC(=O)CN3C[C@H](Cc4ccccc4)N(CCCCCC)C3=N)c2)C[C@@H]1Cc1ccccc1 [Compound 12]
decrease in colony-forming unit (CFU) per thigh (S. aureus ATCC 33591): 5 log10 CFU
MIC after 14 passages (E. coli [1]): virtually constant
MIC after 14 passages (MRSA): virtually constant
time to completely remove all bacteria (E. coli [2]): 0.5 h
MIC (E. coli (ATCC 25922)): 0.75 µg/mL
MIC [3]: 4 µg/mL
MIC [4]: 0.75 µg/mL
inhibition at 0.19 µg/mL (E. coli biofilm; 0.19 μg/mL): 38%
inhibition at 0.39 µg/mL (E. coli biofilm; 0.39 μg/mL): ~90%
MIC [5]: 0.16 µg/mL
